Data from patent US5045458A, “Antibiotics PB-6042S” (Shionogi & Co., Ltd., priority 1988, dated 1991).
Converted amounts (≈) assume the structure as drawn. Read-outs that look alike come from different tables or passages of the source.

Assays:
C. difficile ATCC17857 = assay: MIC against anaerobic bacteria; type: cell-based; details: Clostridioides difficile
E. lentum II-1 = assay: MIC against anaerobic bacteria; type: cell-based; details: Eggerthella lenta, II1
S. aureus SR14(R) = assay: MIC against aerobic bacteria; details: Staphylococcus aureus
[1] = tested on: B. thetaiotaomicron WAL3304; assay: MIC against anaerobic bacteria; type: cell-based; details: Bacteroides thetaiotaomicron
S. pyogenes C-203 = assay: MIC against aerobic bacteria; details: Streptococcus pyogenes, C203
[2] = tested on: S. constellatus ATCC27823; assay: MIC against anaerobic bacteria; type: cell-based; details: Streptococcus constellatus
P. acens ATCC11827 = assay: MIC against anaerobic bacteria; type: cell-based
K. pneumoniae SR1 = assay: MIC against aerobic bacteria; details: Klebsiella pneumoniae
[3] = tested on: P. asaccharolyticus ATCC14963; assay: MIC against anaerobic bacteria; type: cell-based; details: Peptoniphilus asaccharolyticus, ATCC14963
F. mortiferum ATCC9817 = assay: MIC against anaerobic bacteria; type: cell-based; details: Fusobacterium mortiferum
C. perfringens SAKAI = assay: microbe, parasite or virus in culture; type: cell-based; details: Clostridium perfringens
P. aeruginosa A25619 = assay: MIC against aerobic bacteria; details: Pseudomonas aeruginosa
F. necrophorum ATCC25286 = assay: MIC against anaerobic bacteria; type: cell-based; details: Fusobacterium necrophorum
S. aureus FDA JC-1 = assay: MIC against aerobic bacteria; details: Staphylococcus aureus, FDAJC1
B. fragilis GM7000 = assay: MIC against anaerobic bacteria; type: cell-based; details: Bacteroides fragilis
B. fragilis ATCC25285 = assay: MIC against anaerobic bacteria; type: cell-based; details: Bacteroides fragilis; B. fragilis ATCC25285; read-out: MIC
B. bifidum JCM1122 = assay: MIC against anaerobic bacteria; type: cell-based; details: Bifidobacterium bifidum
B. vulgatus ATCC29327 = assay: MIC against anaerobic bacteria; type: cell-based; details: Phocaeicola vulgatus
S. pneumoniae TYPE 1 = assay: MIC against aerobic bacteria; details: Streptococcus pneumoniae, TYPE1
P. vulgaris CN-329 = assay: MIC against aerobic bacteria; details: Proteus vulgaris, CN329
[4] = tested on: B. melaninogenicus GAI0413; assay: MIC against anaerobic bacteria; type: cell-based
B. longum ATCC15707 = assay: MIC against anaerobic bacteria; type: cell-based; details: Bifidobacterium longum
L. ruminis ATCC27780 = assay: MIC against anaerobic bacteria; type: cell-based; details: L. ruminis ATCC27780; read-out: MIC
P. prevotii ATCC9321 = assay: MIC against anaerobic bacteria; type: cell-based; details: Anaerococcus prevotii, ATCC9321
E. limosum ATCC8486 = assay: MIC against anaerobic bacteria; type: cell-based; details: Eubacterium limosum; E. limosum ATCC8486; read-out: MIC
C. perfringens ATCC13124 = assay: microbe, parasite or virus in culture; type: cell-based; details: Clostridium perfringens
B. adolescentis JCM1250 = assay: MIC against anaerobic bacteria; type: cell-based; details: Bifidobacterium adolescentis
E. aerofaciens ATCC25986 = assay: MIC against anaerobic bacteria; type: cell-based; details: Collinsella aerofaciens, ATCC25986
P. anaerobius B-38 = assay: MIC against anaerobic bacteria; type: cell-based; details: Peptostreptococcus anaerobius, B38
P. micros VPI5464-1 = assay: MIC against anaerobic bacteria; type: cell-based; details: Parvimonas micra, VPI54641
[5] = filter paper electrophoresis and bioautography (acidic property); type: physicochemical
Text: Other physicochemical properties of PB-6042s in the form of sodium salt are listed below.

anaerobic bacteria = assay: antibacterial activity against anaerobic bacteria (summary); type: cell-based; details: in words
E. coli NIHJ JC-2 = assay: MIC against aerobic bacteria; details: Escherichia coli, NIHJJC2
B. distasonis JU-11-1 = assay: MIC against anaerobic bacteria; type: cell-based; details: Parabacteroides distasonis, JU111
F. varium ATCC8501 = assay: MIC against anaerobic bacteria; type: cell-based; details: Fusobacterium varium
L. plantarum JCM1100 = assay: MIC against anaerobic bacteria; type: cell-based; details: Lactiplantibacillus plantarum
F. nucleatum ATCC25586 = assay: MIC against anaerobic bacteria; type: cell-based; details: Fusobacterium nucleatum
B. ovatus 2505 = assay: MIC against anaerobic bacteria; type: cell-based; details: Bacteroides ovatus
[6] = F. mortiferum ATCC9817, read-out: MIC
[7] = B. bifidum JCM1122, read-out: MIC
[8] = B. melaninogenicus GAI0413, read-out: MIC
[9] = L. plantarum JCM1100, read-out: MIC
[10] = B. thetaiotaomicron WAL3304, read-out: MIC
[11] = B. fragilis GM7000, read-out: MIC
[12] = B. vulgatus ATCC29327, read-out: MIC
[13] = B. distasonis JU-11-1, read-out: MIC

SMILES	MIC (C. difficile ATCC17857)	MIC (S. aureus SR14(R))	MIC (S. pyogenes C-203)	MIC [2]	MIC (P. acens ATCC11827)	MIC (K. pneumoniae SR1)	MIC [3]	MIC (C. perfringens SAKAI)	MIC (P. aeruginosa A25619)	MIC (F. necrophorum ATCC25286)	MIC (S. aureus FDA JC-1)	MIC (B. fragilis ATCC25285)	MIC (S. pneumoniae TYPE 1)	MIC (P. vulgaris CN-329)	MIC (L. ruminis ATCC27780)	MIC (P. prevotii ATCC9321)	MIC (E. limosum ATCC8486)	MIC (C. perfringens ATCC13124)	MIC (E. aerofaciens ATCC25986)	MIC (P. anaerobius B-38)	further results
C=C1OC(=O)C(C(=O)CCCCCCCCCCC)=C1O [PB-6042C]	0.78 µg/mL (≈ 2.65 µM)	> 100 µg/mL	12.5 µg/mL (≈ 42.5 µM)	0.78 µg/mL (≈ 2.65 µM)	0.78 µg/mL (≈ 2.65 µM)	> 100 µg/mL	3.13 µg/mL (≈ 10.6 µM)	3.13 µg/mL (≈ 10.6 µM)	> 100 µg/mL	12.5 µg/mL (≈ 42.5 µM)	> 100 µg/mL	1.56 µg/mL (≈ 5.3 µM)	12.5 µg/mL (≈ 42.5 µM)	> 100 µg/mL	1.56 µg/mL (≈ 5.3 µM)	3.13 µg/mL (≈ 10.6 µM)	1.56 µg/mL (≈ 5.3 µM)	3.13 µg/mL (≈ 10.6 µM)	3.13 µg/mL (≈ 10.6 µM)	0.78 µg/mL (≈ 2.65 µM)	MIC (E. lentum II-1): 3.13 µg/mL (≈ 10.6 µM); MIC ([1]; WAL3304): 3.13 µg/mL (≈ 10.6 µM); MIC (F. mortiferum ATCC9817; [6]): 25 µg/mL (≈ 84.9 µM); MIC (B. fragilis GM7000; GM7000): 3.13 µg/mL (≈ 10.6 µM); MIC (B. bifidum JCM1122; [7]): 6.25 µg/mL (≈ 21.2 µM); MIC (B. vulgatus ATCC29327; ATCC29327): 3.13 µg/mL (≈ 10.6 µM); MIC [4, 8]: 6.25 µg/mL (≈ 21.2 µM); MIC (B. longum ATCC15707; ATCC15707): 3.13 µg/mL (≈ 10.6 µM); MIC (B. adolescentis JCM1250; B. adolescentis JCM1250, read-out: MIC): 0.78 µg/mL (≈ 2.65 µM); MIC (P. micros VPI5464-1): 0.78 µg/mL (≈ 2.65 µM); acidic property [5]: acidic substances; growth inhibition of anaerobic bacteria (anaerobic bacteria): inhibit the growth of anaerobic bacteria, selectively; MIC (E. coli NIHJ JC-2): > 100 µg/mL; MIC (B. distasonis JU-11-1): 3.13 µg/mL (≈ 10.6 µM); MIC (F. varium ATCC8501): > 100 µg/mL; MIC (L. plantarum JCM1100; [9]): 6.25 µg/mL (≈ 21.2 µM); MIC (F. nucleatum ATCC25586): 12.5 µg/mL (≈ 42.5 µM); MIC (B. ovatus 2505; 2505): 3.13 µg/mL (≈ 10.6 µM)
C=C1OC(=O)C(C(=O)CCC/C=C\CCCCCC)=C1O [PB-6042B]	1.56 µg/mL (≈ 5.34 µM)	12.5 µg/mL (≈ 42.8 µM)	12.5 µg/mL (≈ 42.8 µM)	1.56 µg/mL (≈ 5.34 µM)	3.13 µg/mL (≈ 10.7 µM)	> 100 µg/mL	6.25 µg/mL (≈ 21.4 µM)	6.25 µg/mL (≈ 21.4 µM)	> 100 µg/mL	12.5 µg/mL (≈ 42.8 µM)	12.5 µg/mL (≈ 42.8 µM)	3.13 µg/mL (≈ 10.7 µM)	12.5 µg/mL (≈ 42.8 µM)	> 100 µg/mL	3.13 µg/mL (≈ 10.7 µM)	6.25 µg/mL (≈ 21.4 µM)	3.13 µg/mL (≈ 10.7 µM)	6.25 µg/mL (≈ 21.4 µM)	6.25 µg/mL (≈ 21.4 µM)	3.13 µg/mL (≈ 10.7 µM)	MIC (E. lentum II-1): 6.25 µg/mL (≈ 21.4 µM); MIC [1, 10]: 3.13 µg/mL (≈ 10.7 µM); MIC (F. mortiferum ATCC9817; [6]): 25 µg/mL (≈ 85.5 µM); MIC (B. fragilis GM7000; [11]): 3.13 µg/mL (≈ 10.7 µM); MIC (B. bifidum JCM1122; [7]): 12.5 µg/mL (≈ 42.8 µM); MIC (B. vulgatus ATCC29327; [12]): 3.13 µg/mL (≈ 10.7 µM); MIC ([4]; GAI0413): 6.25 µg/mL (≈ 21.4 µM); MIC (B. longum ATCC15707; ATCC15707): 6.25 µg/mL (≈ 21.4 µM); MIC (B. adolescentis JCM1250; JCM1250): 6.25 µg/mL (≈ 21.4 µM); MIC (P. micros VPI5464-1): 1.56 µg/mL (≈ 5.34 µM); acidic property [5]: acidic substances; growth inhibition of anaerobic bacteria (anaerobic bacteria): inhibit the growth of anaerobic bacteria, selectively; MIC (E. coli NIHJ JC-2): > 100 µg/mL; MIC (B. distasonis JU-11-1; [13]): 3.13 µg/mL (≈ 10.7 µM); MIC (F. varium ATCC8501): > 100 µg/mL; MIC (L. plantarum JCM1100; [9]): 12.5 µg/mL (≈ 42.8 µM); MIC (F. nucleatum ATCC25586): 12.5 µg/mL (≈ 42.8 µM); MIC (B. ovatus 2505; B. ovatus 2505, read-out: MIC): 3.13 µg/mL (≈ 10.7 µM)
C=C1OC(=O)C(C(=O)CCCCCCCCC)=C1O [PB-6042A]	3.13 µg/mL (≈ 11.8 µM)	> 100 µg/mL	25 µg/mL (≈ 93.9 µM)	3.13 µg/mL (≈ 11.8 µM)	3.13 µg/mL (≈ 11.8 µM)	> 100 µg/mL	12.5 µg/mL (≈ 46.9 µM)	12.5 µg/mL (≈ 46.9 µM)	> 100 µg/mL	6.25 µg/mL (≈ 23.5 µM)	25 µg/mL (≈ 93.9 µM)	3.13 µg/mL (≈ 11.8 µM)	25 µg/mL (≈ 93.9 µM)	> 100 µg/mL	6.25 µg/mL (≈ 23.5 µM)	12.5 µg/mL (≈ 46.9 µM)	6.25 µg/mL (≈ 23.5 µM)	12.5 µg/mL (≈ 46.9 µM)	12.5 µg/mL (≈ 46.9 µM)	3.13 µg/mL (≈ 11.8 µM)	MIC (E. lentum II-1; E. lentum II-1, read-out: MIC): 6.25 µg/mL (≈ 23.5 µM); MIC [1, 10]: 3.13 µg/mL (≈ 11.8 µM); MIC (F. mortiferum ATCC9817; ATCC9817): 12.5 µg/mL (≈ 46.9 µM); MIC (B. fragilis GM7000; [11]): 3.13 µg/mL (≈ 11.8 µM); MIC (B. bifidum JCM1122; JCM1122): 12.5 µg/mL (≈ 46.9 µM); MIC (B. vulgatus ATCC29327; [12]): 3.13 µg/mL (≈ 11.8 µM); MIC [4, 8]: 6.25 µg/mL (≈ 23.5 µM); MIC (B. longum ATCC15707; B. longum ATCC15707, read-out: MIC): 6.25 µg/mL (≈ 23.5 µM); MIC (B. adolescentis JCM1250; JCM1250): 12.5 µg/mL (≈ 46.9 µM); MIC (P. micros VPI5464-1): 1.56 µg/mL (≈ 5.86 µM); acidic property [5]: acidic substances; growth inhibition of anaerobic bacteria (anaerobic bacteria): inhibit the growth of anaerobic bacteria, selectively; MIC (E. coli NIHJ JC-2): > 100 µg/mL; MIC (B. distasonis JU-11-1; [13]): 3.13 µg/mL (≈ 11.8 µM); MIC (F. varium ATCC8501): > 100 µg/mL; MIC (L. plantarum JCM1100; JCM1100): 12.5 µg/mL (≈ 46.9 µM); MIC (F. nucleatum ATCC25586): 6.25 µg/mL (≈ 23.5 µM); MIC (B. ovatus 2505; B. ovatus 2505, read-out: MIC): 3.13 µg/mL (≈ 11.8 µM)
